Results as given in PubChem BioAssay (NCI).
Values joined by “and” are separate entries in the source; they are usually repeats but may differ in a detail not shown here. Identical values can stand only once.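 A five-concentration, 48-hour dose response in 96-well plates underlies each endpoint, interpolated linearly between surrounding concentrations. Here, GI50 denotes the concentration required for 50% inhibition of growth. TGI: total growth inhibition.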

Legend:
Assay in all cases: inhibition of tumour cell growth, NCI panel, 48 h
EKVX NSCLC = test system: EKVX NSCLC
NCI-H226 lung = test system: NCI-H226 lung
NCI-H23 lung = test system: NCI-H23 lung
NCI-H522 lung = test system: NCI-H522 lung
OVCAR-8 ovarian = test system: OVCAR-8 ovarian
RPMI-8226 leukemia = test system: RPMI-8226 leukemia
SF-295 CNS = test system: SF-295 CNS
SK-MEL-5 melanoma = test system: SK-MEL-5 melanoma
SW-620 colon = test system: SW-620 colon
UACC-257 melanoma = test system: UACC-257 melanoma

SMILES	TGI (EKVX NSCLC)	TGI (NCI-H226 lung) [µM]	TGI (NCI-H23 lung) [µM]	TGI (NCI-H522 lung) [µM]	TGI (OVCAR-8 ovarian) [µM]	TGI (RPMI-8226 leukemia)	TGI (SF-295 CNS) [µM]	TGI (SK-MEL-5 melanoma) [µM]	TGI (SW-620 colon) [µM]	TGI (UACC-257 melanoma) [µM]	GI50 (EKVX NSCLC)	GI50 (NCI-H226 lung) [µM]	GI50 (NCI-H23 lung)	GI50 (NCI-H522 lung)	GI50 (OVCAR-8 ovarian)	GI50 (RPMI-8226 leukemia)	GI50 (SF-295 CNS)	GI50 (SK-MEL-5 melanoma) [µM]	GI50 (SW-620 colon)	GI50 (UACC-257 melanoma)
C/C(=N/NC(=O)c1ccncc1)c1ccc(NC(=O)C(=O)Nn2c(=S)[nH]c3ccccc3c2=O)cc1	> 100 µM	> 100	> 100	> 100	> 100	> 100 µM	> 100	> 100	> 100	> 100										
CC1(C)C(c2ccccc2)=NN(O)c2ccccc21	> 100 µM	> 100	> 100	> 100	> 100	> 100 µM	> 100	> 100	> 100	> 100										
CCOC(=O)c1cc(/C=C/C(C)=C/C(=O)OC)oc1-c1ccccc1	> 100 µM	> 100	> 100	> 100	> 100	> 100 µM	> 100	> 100	> 100	> 100										
CCOC(=O)C1=C(C)NC2SC(=O)/C(=C\c3ccccc3Cl)N2C1c1ccccc1 (stereo not drawn)	> 100 µM	> 100	> 100	> 100	> 100	> 100 µM	> 100	> 100	> 100	> 100	> 100 µM	> 100	> 100 µM	> 100 µM	> 100 µM	79.7 µM	> 100 µM	50.2	> 100 µM	> 100 µM
COc1cc2ccccc2c2cc([N+](=O)[O-])oc12	14.1 µM	3.04	4.18	1.35	> 71.8	14.7 µM	15.6	0.293	15	0.443										
COC(=O)CCC(C)[C@H]1CCC2C3C(C[C@H](OC(C)=O)[C@@]21C)[C@@]1(C)CCC2(C[C@H]1C[C@H]3OC(C)=O)OOC1(CCC(C)CC1)OO2 (stereo partly drawn)	21.5 µM and 52.4 µM	> 100	> 100	> 100	> 100	6.34 µM and 17.2 µM	> 100	> 100	> 100	> 100	3.79 µM and 10.1 µM		7.74 µM and 15.6 µM	6.16 µM and 14.6 µM	8.64 µM and 26.2 µM	1.28 µM and 3.15 µM	> 100 µM and 47.1 µM		4.68 µM and 31.4 µM	8.83 µM and 25.2 µM
CCC1=C(C)/C(=C/c2[nH]c(C(Br)Br)c(CC)c2C)N=C1C(Br)Br	> 100 µM	90.1	> 100	38.1	> 100	39.9 µM	98.2	32.1	> 100	57.6										
Cc1cc(=O)oc2c(CN3CCCCC3)c(O)ccc12	> 100 µM	> 100	> 100	> 100	> 100	> 100 µM	> 100	> 100	> 100	> 100										
CN1C(OCc2ccccc2)c2c(ccc3c2OCO3)C2C=Cc3cc4c(cc3C21)OCO4 (stereo not drawn)	2.98 µM	2.8	2.68	2.16	1.05	0.584 µM	2.81	2.58	1.35	2.68										
COc1c(C2=NC(C(C)C)CO2)ccc2ccccc12 (stereo not drawn)	> 100 µM	> 100	> 100	99.8	> 100	65.6 µM	> 100	36.3	> 100	> 100										
COc1ccc(-c2nn(-c3ccc(NC(=O)c4ccc(Cl)c(C(F)(F)F)c4)cc3)cc2-c2ccncc2)cc1Cl	> 100 µM	> 100	> 100	> 100	> 100	> 100 µM	0.79	3.84	> 100	> 94.9	1.87 µM	4.75	2.15 µM	4.03 µM	2.37 µM	0.39 µM	0.217 µM	1.33	1.06 µM	4.68 µM
O=c1oc2cc(N=Cc3ccccc3Cl)ccc2c2ccccc12	> 100 µM	> 100	> 100	> 100	> 100	> 100 µM	> 100	> 100	> 100	> 100										
O=S(=O)(Nc1cc(Br)c(O)c2ccccc12)c1ccc(F)cc1	7.52 µM	38.9	7.87	83.4	7.87	20.1 µM	29.7	3.35	7.65	3.58	2.64 µM	18.3	2.8 µM	5.23 µM	2.78 µM	2.94 µM	15.7 µM	1.79	2.45 µM	1.87 µM
Cc1cc(N2CCN(C)CC2)nc(NCc2cc(Nc3ccnc4cc(Cl)ccc34)ccc2F)n1	> 100 µM	55.4	> 100	3.88	9.68	5.48 µM	3.24	2.75	4.01	3.9	2.5 µM	7.88	3.46 µM	1.92 µM	3.13 µM	2.2 µM	1.68 µM	1.44	1.85 µM	2.11 µM
COc1ccc(C[n+]2c3ccccc3n3c4ccc(N)cc4ccc32)c(OC)c1OC	58.9 µM	60.8	24.9	15.7	32.5	7.64 µM	38.1	7.27	36.5	8.02	3.08 µM	12.8	1.99 µM	2.08 µM	6.48 µM	0.512 µM	4.22 µM	1.44	8.39 µM	2.56 µM
N#CC(C#N)=Cc1c(-c2ccccc2)[nH]c2ccccc12	> 86.4 µM	> 41.4	> 66.3	32.7	> 90.2	4.62 µM	15.5	12.8	> 35.1	> 64.7	5.81 µM	3.84	4.65 µM	4.23 µM	5.75 µM	0.564 µM	1.59 µM	1.08	0.523 µM	23.9 µM
